In patent US20140350081A1, “INSECT G-COUPLED RECEPTORS USEFUL AS TARGETS FOR INSECTICIDES AND COMPOUNDS AND REAGENTS IDENTIFIED USING THE SAME” (priority 2011, published 2014):
Read-outs that look alike come from different tables or passages of the source.

Legend:
AaDOP1 = AaDOP1 (Aedes aegypti, UniProt H6D5H1); experiment: CRELuc reporter dose-response in HEK293 cells stably expressing AaDOP1; type: cell-based
AaDOP2 [1] = biological target: T1, AaDOP2 (Aedes aegypti, UniProt H6D5H2); experiment: CRELuc reporter dose-response in HEK293 cells stably expressing AaDOP2; type: cell-based
Isdop1 [2] = biological target: T2, Isdop1 (Ixodes scapularis, UniProt A0ACM8FJJ0); experiment: cAMP accumulation in HEK 293 cells transiently expressing Isdop1; type: cell-based
Isdop2 [3] = biological target: T3, Isdop2 (Ixodes scapularis, UniProt A0ACM8DGL0); experiment: cAMP accumulation in HEK 293 cells transiently expressing Isdop2; type: cell-based
Isdop1 [4] = biological target: T2, Isdop1; experiment: CRE-Luc reporter assay, HEK cells stably expressing Isdop1; type: cell-based
Isdop2 [5] = biological target: T3, Isdop2; experiment: CRE-Luc reporter assay, HEK cells stably expressing Isdop2; type: cell-based
AaDOP2 [6] = biological target: T1, AaDOP2; experiment: AaDOP2 agonist screen against the LOPAC1280 library; type: cell-based; conditions: 10 μM compound; percent of response to 1 μM dihydrexidine
AaDOP2 [7] = biological target: T1, AaDOP2; experiment: LOPAC1280 antagonist screen in HEK-CRELuc-Aadop2 cells; type: cell-based; conditions: 10 μM compound, 300 nM dopamine, quadruplicate
AaDOP2 [8] = biological target: T1, AaDOP2; experiment: HTRF cAMP accumulation concentration response assay (Cisbio Dynamic 2); type: cell-based; conditions: AaDOP2 expressing cells in the presence of dopamine; No Inhibition = <10% inhibition at 3 μM test compound; read-out: IC50 ± S.E.M. (nM), HTRF cAMP assay
Ae. aegypti L3 larvae [9] = experiment: Ae. aegypti L3 concentration response and time course assays; type: in vivo, Aedes aegypti
Protocol: Briefly, chemistries were diluted to appropriate concentration in water and added to the wells of 24-well plates containing 5 L3 stage Ae. aegypti larvae to achieve a final concentration of 400, 200, 100, 50 and 25 μM in 1 ml sterile RO water. Chemistries were tested in quadruplicate at each concentration. […] Results reported here represent a minimum of three independent CRC experiments (i.e., n=3).

[10] = tested on: adult male Blatella germanica; experiment: Cockroach contact assay (topical application); type: in vivo; conditions: 200 mM compound
From the text: (§1) A series of whole organism bioassays was developed to further evaluate the toxicity of chemistries to a range of agricultural, veterinary and public health pests and non-target insects (Tables 12 and 13). These assays are designed to rapidly explore the biological activity spectrum of chemistries as well as to facilitate initial investigations of the mode of action of insecticidal compounds. Briefly, assays were developed for the German cockroach (Blatella germanica, urban pest), termite (Reticulitermes flavipes; urban pest), lone star tick (Amblyomma americana; veterinary and public health pest), soybean aphid (Aphis glycines, agricultural pest) and honeybee (Apis mellifera; beneficial, non-target insect). The assays were designed to test the toxicity and speed of kill of multiple chemistries on contact. Each of these assays was performed as a single point dose experiment in triplicate using either topical application of compound to the ventral thorax ([…]; 50-80 μg effective dose depending on compound) as is the case for our cockroach and honeybee assays, or 10 second immersion in a solution of the compound diluted in water or DMSO:EtOH to a final concentration of 100 μM. The assays were conducted in 24-well plate format with mortality assessment following incubation at 22° C. as described above. Commercial insecticides were incorporated in these assays to provide a positive control and permit initial comparative analyses. Lead chemistries identified in our in vivo screen have been evaluated in the cockroach and termite assays.

[11] = tested on: adult Reticulitermes flavipes; experiment: Termite immersion assay; type: in vivo; conditions: in vivo
From the text: A series of whole organism bioassays was developed to further evaluate the toxicity of chemistries to a range of agricultural, veterinary and public health pests and non-target insects (Tables 12 and 13). These assays are designed to rapidly explore the biological activity spectrum of chemistries as well as to facilitate initial investigations of the mode of action of insecticidal compounds. Briefly, assays were developed for the German cockroach (Blatella germanica, urban pest), termite (Reticulitermes flavipes; urban pest), lone star tick (Amblyomma americana; veterinary and public health pest), soybean aphid (Aphis glycines, agricultural pest) and honeybee (Apis mellifera; beneficial, non-target insect). The assays were designed to test the toxicity and speed of kill of multiple chemistries on contact. Each of these assays was performed as a single point dose experiment in triplicate using either topical application of compound to the ventral thorax (1 μl of a […] compound solution in 1:1 v:v DMSO:EtOH vehicle; 50-80 μg effective dose depending on compound) as is the case for our cockroach and honeybee assays, or 10 second immersion in a solution of the compound diluted in water or DMSO:[…] The assays were conducted in 24-well plate format with mortality assessment following incubation at 22° C. as described above. Commercial insecticides were incorporated in these assays to provide a positive control and permit initial comparative analyses. Lead chemistries identified in our in vivo screen have been evaluated in the cockroach and termite assays.

[12] = tested on: adult male Blatella germanica; experiment: Cockroach assay of Table 16 (title contact assay, text feeding assay); type: in vivo; conditions: 200 mM compound
From the text: as §1

Isdop2 [13] = biological target: T3, Isdop2; experiment: cell-based
Isdop1 [14] = biological target: T2, Isdop1; experiment: cAMP accumulation confirmation assay, cells stably expressing Isdop1; type: cell-based
Isdop2 [15] = biological target: T3, Isdop2; experiment: cAMP accumulation confirmation assay, cells stably expressing Isdop2; type: cell-based
AaDOP2 [16] = biological target: T1, AaDOP2; conditions: read-out: Affinity (Aedesdop2); values equal the Table 3 IC50 values
Ae. aegypti L3 larvae [17] = conditions: 400 μM, three independent experiments, listed as Cis-flupenthixol
Ae. aegypti L3 larvae [18] = experiment: whole plant or invertebrate; conditions: Aedes aegypti
AaDOP2 [19] = biological target: T1, AaDOP2; experiment: cell-based
Ae. aegypti larvae = experiment: whole plant or invertebrate; type: in vivo; conditions: Aedes aegypti, 24 h, read-out: average larval mortality
Protocol: Single dose-point and dose response in vivo mosquito bioassays were used to assess the toxicity of selected AaDop2 receptor antagonists identified in the chemical screen. Larvae of Ae. aegypti (Liverpool strain) were reared under standard laboratory conditions on a 12 hr day/night cycle at 75% RH and 28° C., and bioassays were conducted at room temperature (22-24° C.). Larvae were transferred from standard rearing trays into six-well tissue culture plates (Corning, Inc. Corning, N.Y.) using a small plastic pipette. Ten L4-stage larvae were included per well, each containing five ml of de-ionized water and an assigned drug concentration. Controls were conducted similarly but lacked a drug treatment. Bioassays employed a double-blind experimental design, and larval mortality was scored 24 hr following administration of drugs. Single dose-point assays were conducted using 400 μM drug and included three biological replicates each consisting of 100 larvae.

[20] = 10 μM biogenic amine, 300 nM propranolol, cAMP accumulation, mean±standard error
[21] = read-out: % Inhibition (of response to dopamine), Isdop2 screen
[22] = 48 h, read-out: Toxicity to Aedes aegypti larvae (mortality) 48 hours, 400 μM, L3 larvae, three independent experiments
[23] = 72 h, read-out: Toxicity to Aedes aegypti larvae (mortality) 72 hours, 400 μM, L3 larvae, three independent experiments
[24] = 10 μM antagonist, 1 μM dopamine
[25] = 10 μM antagonist with 1 μM dopamine
[26] = 10 μM antagonist with 1 μM dopamine, relative to dopamine alone

T3 sequence (A0ACM8DGL0 entry or part of it): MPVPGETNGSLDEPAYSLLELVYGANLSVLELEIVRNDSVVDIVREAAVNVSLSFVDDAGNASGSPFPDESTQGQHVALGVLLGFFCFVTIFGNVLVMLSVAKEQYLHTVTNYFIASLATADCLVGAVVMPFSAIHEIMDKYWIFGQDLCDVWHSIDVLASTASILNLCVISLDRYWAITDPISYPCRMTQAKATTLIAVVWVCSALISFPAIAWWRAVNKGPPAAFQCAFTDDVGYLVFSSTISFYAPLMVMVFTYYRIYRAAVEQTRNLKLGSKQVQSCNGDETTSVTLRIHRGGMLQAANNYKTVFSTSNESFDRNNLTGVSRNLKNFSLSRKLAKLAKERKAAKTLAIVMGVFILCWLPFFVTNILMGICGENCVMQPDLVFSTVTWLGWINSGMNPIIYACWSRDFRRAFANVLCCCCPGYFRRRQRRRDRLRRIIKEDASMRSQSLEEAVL
T1 sequence (H6D5H2 entry or part of it): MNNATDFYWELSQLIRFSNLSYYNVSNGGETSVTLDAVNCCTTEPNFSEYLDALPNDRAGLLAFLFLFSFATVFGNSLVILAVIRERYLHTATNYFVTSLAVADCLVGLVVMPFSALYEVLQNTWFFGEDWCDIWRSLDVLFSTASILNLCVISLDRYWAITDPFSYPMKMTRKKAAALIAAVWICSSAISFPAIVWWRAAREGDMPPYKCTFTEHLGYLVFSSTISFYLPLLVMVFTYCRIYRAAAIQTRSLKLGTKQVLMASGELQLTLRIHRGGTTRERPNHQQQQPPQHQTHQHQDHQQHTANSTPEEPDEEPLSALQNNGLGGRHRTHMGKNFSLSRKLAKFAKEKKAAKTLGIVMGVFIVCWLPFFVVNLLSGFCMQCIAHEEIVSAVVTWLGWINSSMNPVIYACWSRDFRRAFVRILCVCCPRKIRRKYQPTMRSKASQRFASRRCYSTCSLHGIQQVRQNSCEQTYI
AaDOP1, sequence (H6D5H1 entry or part of it): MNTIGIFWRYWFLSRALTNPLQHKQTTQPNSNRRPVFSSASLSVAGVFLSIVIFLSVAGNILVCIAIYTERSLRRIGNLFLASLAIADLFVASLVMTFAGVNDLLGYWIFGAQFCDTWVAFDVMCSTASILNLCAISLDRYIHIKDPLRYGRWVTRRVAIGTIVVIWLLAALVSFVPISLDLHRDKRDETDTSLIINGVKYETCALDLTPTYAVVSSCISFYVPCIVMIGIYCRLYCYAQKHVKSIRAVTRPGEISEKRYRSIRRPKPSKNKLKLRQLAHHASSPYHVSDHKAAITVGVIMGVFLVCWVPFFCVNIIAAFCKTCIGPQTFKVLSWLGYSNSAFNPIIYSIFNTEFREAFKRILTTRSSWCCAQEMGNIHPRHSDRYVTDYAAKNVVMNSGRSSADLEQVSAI

NC[C@H](O)c1ccc(O)c(O)c1 [Norepinephrine]
EC50 (AaDOP1; HEK293 cells stably expressing CRELuc reporter and AaDOP1): 760 ± 180 nM
behaviour at the AaDOP2 receptor in follow up CRCs (AaDOP2 [1]; HEK 293-CRELuc cells, FIG. 21A): partial agonists
Stimulatory response (fold-over-basal) Isdop1 (Isdop1 [2]; [20]): 1.46 ± 0.10 fold-over-basal
Stimulatory response (fold-over-basal) Isdop2 (Isdop2 [3]; [20]): 2.43 ± 0.65 fold-over-basal
EC50 (Isdop1 [4]): 2200 ± 300 nM
EC50 (Isdop2 [5]): 4300 ± 1300 nM
% of DHX (AaDOP2 [6]): 86%

OCCN1CCN(CC/C=C2/c3ccccc3Sc3ccc(C(F)(F)F)cc32)CC1 [cis-(Z)-Flupenthixol, ((Z)-2-(4-(3-(2-(trifluoromethyl)-9H-thioxanthen-9-ylidene)propyl)piperazin-1-yl)ethanol)]
% of the SCH23390 effect (AaDOP2 [7]): 88%
IC50 (AaDOP2 [8]): 0.35 ± 0.07 nM
LT50 (Ae. aegypti L3 larvae [9]; 400 μM, L3 larval time course assay): 54 min
LC50 (Ae. aegypti L3 larvae [9]; Aedes aegypti): 88000 nM
% Mortality 24 hrs [10]: 10%
% Mortality 48 hrs [10]: 10%
% Mortality 72 hrs [10]: 10%
% Mortality 120 hrs [10]: 20%
% Mortality 240 hrs [10]: 20%
mortality of adult termites [11]: 70-100%
% Mortality 24 hrs [12]: 3%
% Mortality 48 hrs [12]: 10%
% Mortality 72 hrs [12]: 10%
% Mortality 120 hrs [12]: 20%
inhibition at 10 µM (Isdop2 [13]; [21]): 92%
IC50 (Isdop1 [14]): 3700 nM
IC50 (Isdop2 [15]): 870 nM
IC50 (AaDOP2 [16]): 20 nM
Toxicity to Aedes aegypti larvae (mortality) 24 hours (Ae. aegypti L3 larvae [17]): 100%
mortality at 400 µM (Ae. aegypti L3 larvae [18]; 0.5 h, read-out: percent mortality 0.5 hr, 400 uM, L3 larvae, value for this scoring time): 10%
mortality at 400 µM (Ae. aegypti L3 larvae [18]; 1 h, read-out: percent mortality 1 hr, 400 uM, L3 larvae, per scoring time): 30%
mortality at 400 µM (Ae. aegypti L3 larvae [18]; 2 h, read-out: percent mortality 2 hr, 400 uM, L3 larvae, per scoring time): 10%
mortality at 400 µM (Ae. aegypti L3 larvae [18]; 3 h, read-out: mortality within three hours, 400 μM, L3 larvae): > 70%
mortality at 400 µM (Ae. aegypti L3 larvae [18]; 3 h, read-out: percent mortality 3 hr, 400 uM, L3 larvae, per scoring time): 10%
mortality at 400 µM (Ae. aegypti L3 larvae [18]; 4 h, read-out: percent mortality 4 hr, 400 uM, L3 larvae, per scoring time): 0%
mortality at 400 µM (Ae. aegypti L3 larvae [18]; 24 h, read-out: percent mortality 24 hr, 400 uM, L3 larvae, per scoring time): 0%
mortality at 400 µM (Ae. aegypti L3 larvae [18]; [22]): 100%
mortality at 400 µM (Ae. aegypti L3 larvae [18]; 48 h, read-out: percent mortality 48 hr, 400 uM, L3 larvae, per scoring time): 0%
mortality at 400 µM (Ae. aegypti L3 larvae [18]; 72 h, read-out: Cumulative % Mortality (72 hrs), 400 uM, L3 larvae): 100%
mortality at 400 µM (Ae. aegypti L3 larvae [18]; [23]): 100%
mortality at 400 µM (Ae. aegypti L3 larvae [18]; 72 h, read-out: percent mortality 72 hr, 400 uM, L3 larvae, per scoring time): 0%

Oc1ccc(C=Cc2cc(O)cc(O)c2)cc1 [Resveratrol]
% of the SCH23390 effect (AaDOP2 [7]): 89%
inhibition at 10 µM (Isdop2 [13]; [21]): 100%
IC50 (AaDOP2 [19]): ≥ 10000 nM

CN1CCc2cc(Cl)c(O)cc2C(c2ccccc2)C1 (centres unmarked) [SCH23390, 8-chloro-3-methyl-5-phenyl-1,2,4,5-tetrahydro-3-benzazepin-7-ol]
inhibition of dopamine-mediated stimulation of AaDOP1 (AaDOP1; [24]): robustly inhibited
inhibition of dopamine-mediated stimulation of AaDOP2 (AaDOP2 [1]; [24]): robustly inhibited
% of the SCH23390 effect (AaDOP2 [7]): 83%
IC50 (AaDOP2 [8]): 1300 nM
effect on dopamine-stimulated cAMP, Isdop1 (Isdop1 [2]; [25]): significant reduction in levels of intracellular cAMP
effect on dopamine-stimulated cAMP, Isdop2 (Isdop2 [3]; [25]): antagonistic effects
inhibition of luciferase activity Isdop1 (Isdop1 [4]; [26]): 74%
effect on constitutive activity of Isdop1 (Isdop1 [4]; antagonist alone, CRE-Luc): inhibition of the constitutive activity of Isdop1 was observed
inhibition of luciferase activity Isdop2 (Isdop2 [5]; [26]): 69%
inhibition at 10 µM (Isdop2 [13]; [21]): 77%
inhibition at 10 µM (Isdop2 [13]; read-out: average inhibitory effect of antagonist control across all sixteen plates): 86 ± 6%
IC50 (Isdop1 [14]): 57 nM
IC50 (Isdop2 [15]): 120 nM
mortality at 400 µM (Ae. aegypti L3 larvae [18]; 24 h, read-out: Toxicity to Aedes aegypti larvae (mortality) 24 hours, 400 μM, L3 larvae, three independent experiments): 3%
mortality at 400 µM (Ae. aegypti L3 larvae [18]; [22]): 23%
mortality at 400 µM (Ae. aegypti L3 larvae [18]; [23]): 47%

CN(C)CCC=C1c2ccccc2COc2ccccc21 (mixture of isomers) [Doxepin, ((Z)-3-(dibenzo[b,e]oxepin-11(6H)-ylidene)-N,N-dimethylpropan-1-amine)]
mortality at 400 µM (Ae. aegypti larvae): 57%
inhibition at 10 µM (Isdop2 [13]; [21]): 87%
